For eight compounds, Activity and EC50 results are on record in ChEMBL document CHEMBL1150880, “Novel and insecticidal isobutylamides from dinosperma erythrococca” (J Nat Prod, 1998).

The source made the active and inactive calls. The calls are words filed in the database; no cut-off is given here.

In assay [1] the test system is Heliothis virescens. In words: Insecticidal activity against tobacco budworm at 500 ppm after 3 to 5 days. The format is functional.
Assay [2] deals with Musca domestica. In words: Insecticidal activity against housefly at 2500 ppm after 3 to 5 days. Type of assay: functional, organism-based.
For assay [3], the system named is Heliothis virescens. Description: Insecticidal activity against tobacco budworm at 2500 ppm after 3 to 5 days. The format is functional, organism-based.
For assay [4], the system named is Musca domestica. In words: Insecticidal activity against housefly at 500 ppm after 3 to 5 days. Type of assay: functional, organism-based.
Assay [5] relates to Musca domestica. Description: Insecticidal activity against housefly at 1000 ppm after 3 to 5 days. Type of assay: functional, organism-based.
In assay [6] the test system is Heliothis virescens. In words: Insecticidal activity against tobacco budworm at 1000 ppm after 3 to 5 days. Type of assay: functional, organism-based.
Assay [7] concerns Musca domestica. In words: Insecticidal activity against housefly after 3 to 5 days. Type of assay: functional, organism-based.
The test system of assay [8] is Musca domestica. In words: Insecticidal activity against housefly after 3 to 5 days relative to cypermethrin. The format is functional, organism-based.
For assay [9], the system named is Heliothis virescens. In words: Insecticidal activity against tobacco budworm after 3 to 5 days. Type of assay: functional, organism-based.
The test system of assay [10] is Heliothis virescens. Description: Insecticidal activity against tobacco budworm after 3 to 5 days relative to profenofos. Type of assay: functional.
In assay [11] the test system is Musca domestica. Description: Insecticidal activity against housefly after 3 to 5 days relative to permethrin. Type of assay: functional.

In the assay with Heliothis virescens [1], `CC(C)(O)CNC(=O)/C=C/C=C/Cc1ccccc1` returned an Activity of 80%.

For `CC(C)CNC(=O)/C=C/c1ccc2c(c1)OCO2`, the result in the assay with Musca domestica [2] and with Heliothis virescens [3] was inactive.

Regarding `COc1c2c(cc3ccoc13)CCC(C/C=C/C=C/C(=O)NCC(C)C)O2` (stereo not given), the result in the assay with Musca domestica [4] and with Heliothis virescens [1] was inactive.

In the case of `CCCCC/C=C/C=C/C(=O)NCC(C)C`, the result in the assay with Musca domestica [5] and with Heliothis virescens [6] was inactive. In the assay on Musca domestica [2], the outcome was Active.

For the compound `CC(C)CNC(=O)/C=C/C=C/CC1CCc2cc3c(cc2O1)OCO3` (stereo not given) [ERYTHROCOCCAMIDE A], the figures for the EC50 with Musca domestica [7], with Musca domestica [8] and in the assay with Heliothis virescens [9] were 20.2 ppm, 3 ppm and 74.2 ppm, respectively. In addition, in the assay with Musca domestica [4], the result was Active. Besides, the Activity in the assay on Heliothis virescens [10] is 9.9%; in the assay on Musca domestica [11] it was 9%.

Regarding `CC(C)CNC(=O)CC1CCc2cc3c(cc2O1)OCO3` (stereo not given), the result in the assay on Musca domestica [4] and with Heliothis virescens [1] was inactive.

On to `CC(C)CNC(=O)/C=C/C=C/Cc1ccccc1`, for which the EC50 with Musca domestica [7] is 59.9 ppm. The compound further registered an Activity with Musca domestica [8] of 1.8%. The result in the assay with Musca domestica [4] was Active.

Regarding `CC(C)CNC(=O)/C=C/C=C/CC1CCc2ccc(Cl)cc2C1` (stereo not given), in the assay with Musca domestica [11], the Activity stood at 40%.
